Test results reported in patent publication US9475842B2, “Hexadepsipeptide analogues as anticancer compounds” (PIRAMAL ENTERPRISES LIMITED, priority 2012, dated 2016).

How the values were obtained:
Type in all cases: cell-based, human
HeLa cancer cells = assay: Detection of FITC Annexin V apoptosis by flow cytometry; details: for cells positive for annexin V staining (M2): HeLa cells, 12 hrs
Excerpt: The annexin V assay, a classical technique for detecting apoptosis, is the most commonly used method for detecting apoptosis by flow cytometry. One of the earliest features of apoptosis is the translocation of phosphatidylserine from the inner to the outer leaflet of the plasma membrane, thereby exposing phosphatidylserine to the external environment.
Annexin V (cat. no. 556420, BD Biosciences, USA) binds to phosphatidylserine exposed on the cell surface and identifies cells at an earlier stage of apoptosis. • a) HeLa cancer cells [referred to in step 1 of example 16] were seeded at a density of 0.5×10^6 cells/2000 μL well, in a tissue culture grade […] and allowed them to recover for 12 hrs in a humidified 5±0.2% CO2 incubator at 37±0.5° C. • b) After 12 hrs, 5 μL of 200× (200 times higher than required concentration is represented as 200×) compound of Formula (1a) dissolved in DMSO [step 2, example 16] was added to above tissue culture plate seeded with HeLa cancer cells. The final test concentration of the compound of Formula (1a) was 0.0003 μM, 0.003 μM and 0.01 μM. […] The population present in M1 and M2 were determined using FACS analysis.

[1] = system: tumor protein 53 (p53) in HeLa cells; assay: Protein expression by high content screening (Cellomics); details: for Fold activation with respect to control cells, P53: HeLa cells, after 3 hours
Procedure: (§1) Protein expressions of cyclin D, nuclear factor-kappa B (p65) [NFkB (p65)], ribosomal protein S6 (pS6), tumor protein 53 (p53), protein c-jun N-terminal kinase (pJNK), cleaved caspase 9, cleaved caspase 3 and cleaved poly(ADP-ribose) polymerase (PARP) was carried out in HeLa cells [referred to in step 1 of example 16] by Cellomics high content imaging. These primary antibodies were purchased from Santacruz Biotechnology, USA. Briefly 1×10^4 cells were seeded in 96 well tissue culture grade black plate with transparent bottom (Nunc, USA), and allowed to adhere for 24 h, and then replaced with fresh media, and cells were treated with 0.01 μM, 0.003 μM and 0.0003 μM concentrations of compound of Formula (1) [referred to in step 2 of example 16] and incubated for 1 h and 3 h respectively. After respective time point, cells were fixed with 3.7% formaldehyde (Sigma St. Louis, Mo.) for 10 minutes at RT, followed by permeabilization with 0.15% Triton X-100 (Sigma St. Louis, Mo.) for 10 minutes. Then the cells were blocked with 5% Bovine Serum Albumin for 2 hours. After blocking step, specific primary antibodies were added for 1 h, and primary antibodies of different protein were localized by secondary antibody labeled with Dylight548 (red) (Thermofisher, USA). Following secondary incubation, the nucleus was stained with Hoechst 3342 (blue) (Sigma, USA). Immunofluorescence was determined by scanning the plates on Cellomics Array Scan® VTI HCS Reader (Thermo-Fisher Scientific Inc., Waltham, Mass.). All the data points were analyzed using the Compartmental Analysis bio-algorithm of Cellomics and quantitative data were expressed as % activation in comparison to the untreated cells. 1000 cells were counted for each replicate well and the results were presented as an average±S.E.

[2] = system: nuclear factor-kappa B (p65) [NFkB (p65)] in HeLa cells; assay: as above; details: for Fold down regulation with respect to control cells, NFkB (p65): HeLa cells, after 3 hours
Procedure: as §1

[3] = system: cleaved caspase 9 in HeLa cells; assay: as above; details: for Fold activation with respect to control cells, Cleaved Caspase 9: HeLa cells, after 3 hours
Procedure: as §1

cyclin D in HeLa cells = assay: as above; details: for Fold down regulation with respect to control cells, Cyclin D: HeLa cells, after 3 hours
Procedure: as §1

[4] = system: protein c-jun N-terminal kinase (pJNK) in HeLa cells; assay: as above; details: for Fold activation with respect to control cells, pJNK: HeLa cells, after 3 hours
Procedure: as §1

[5] = system: cleaved poly(ADP-ribose) polymerase (PARP) in HeLa cells; assay: as above; details: for Fold activation with respect to control cells, Cleaved PARP: HeLa cells, after 3 hours
Procedure: as §1

[6] = system: ribosomal protein S6 (pS6) in HeLa cells; assay: as above; details: for Fold down regulation with respect to control cells, pS6: HeLa cells, after 3 hours
Procedure: as §1

[7] = system: cleaved caspase 3 in HeLa cells; assay: as above; details: for Fold activation with respect to control cells, Cleaved Caspase 3: HeLa cells, after 3 hours
Procedure: as §1

## CC(C)CC1CCC(O)(C(C)(O)C(=O)NC2C(=O)N3NCCCC3C(=O)N(O)C(C)C(=O)NCC(=O)N3NCCCC3C(=O)N(O)C(C)C(=O)OC2C(C)C)OC1C (stereo not drawn) [Formula (1a), N-(6,18-dihydroxy-22-isopropyl-7,19-dimethyl-5,8,11,17,20,24-hexaoxotetracosa hydrodipyridazino[6,1-f:6′,1′-o][1,4,7,10,13,16]oxapentaazacyclononadecin-23-yl)-2-hydroxy-2-(2-hydroxy-5-isobutyl-6-methyltetrahydro-2H-pyran-2-yl)propanamide]
HeLa cancer cells; HeLa cancer cells, conclusion
  induction of apoptosis (in words): induces cell death through apoptosis
HeLa cancer cells; 0.0003 μM
  cells positive for annexin V staining (M2): 33.80%
HeLa cancer cells; 0.003 μM
  cells positive for annexin V staining (M2): 40.27%
HeLa cancer cells; 0.01 μM
  cells positive for annexin V staining (M2): 59.05%
[1]; 0.0003 μM
  Fold activation with respect to control cells, P53: −0.15 fold
[1]; 0.003 μM
  Fold activation with respect to control cells, P53: 0.55 fold
[1]; 0.01 μM
  Fold activation with respect to control cells, P53: 2.27 fold
[1]; cancer cells, conclusion
  effect on p53 expression (in words): up-regulates
[2]; 0.0003 μM
  Fold down regulation with respect to control cells, NFkB (p65): −0.46 fold
[2]; 0.003 μM
  Fold down regulation with respect to control cells, NFkB (p65): −0.80 fold
[2]; 0.01 μM
  Fold down regulation with respect to control cells, NFkB (p65): −1.86 fold
[2]; cancer cells, conclusion
  effect on NFkB (p65) protein expression (in words): significantly downregulates
[3]; 0.0003 μM
  Fold activation with respect to control cells, Cleaved Caspase 9: −0.04 fold
[3]; 0.003 μM
  Fold activation with respect to control cells, Cleaved Caspase 9: 0.53 fold
[3]; 0.01 μM
  Fold activation with respect to control cells, Cleaved Caspase 9: 2.22 fold
[3]; cancer cells, conclusion
  effect on cleaved caspase 9 expression (in words): up-regulates
Cyclin D in HeLa cells; 0.0003 μM
  Fold down regulation with respect to control cells, Cyclin D: −0.57 fold
Cyclin D in HeLa cells; 0.003 μM
  Fold down regulation with respect to control cells, Cyclin D: −0.89 fold
Cyclin D in HeLa cells; 0.01 μM
  Fold down regulation with respect to control cells, Cyclin D: −3.81 fold
Cyclin D in HeLa cells; cancer cells, conclusion
  effect on cyclin D protein expression (in words): significantly downregulates
[4]; 0.0003 μM
  Fold activation with respect to control cells, pJNK: 0.55 fold
[4]; 0.003 μM
  Fold activation with respect to control cells, pJNK: 0.85 fold
[4]; 0.01 μM
  Fold activation with respect to control cells, pJNK: 2.42 fold
[4]; cancer cells, conclusion
  effect on pJNK expression (in words): up-regulates
[5]; 0.0003 μM
  Fold activation with respect to control cells, Cleaved PARP: 0.52 fold
[5]; 0.003 μM
  Fold activation with respect to control cells, Cleaved PARP: 1.09 fold
[5]; 0.01 μM
  Fold activation with respect to control cells, Cleaved PARP: 1.51 fold
[5]; cancer cells, conclusion
  effect on cleaved PARP (in words): prominent upregulation
[6]; 0.0003 μM
  Fold down regulation with respect to control cells, pS6: −0.42 fold
[6]; 0.003 μM
  Fold down regulation with respect to control cells, pS6: −0.56 fold
[6]; 0.01 μM
  Fold down regulation with respect to control cells, pS6: −1.97 fold
[6]; cancer cells, conclusion
  effect on pS6 protein expression (in words): significantly downregulates
[7]; 0.0003 μM
  Fold activation with respect to control cells, Cleaved Caspase 3: −0.04 fold
[7]; 0.003 μM
  Fold activation with respect to control cells, Cleaved Caspase 3: 0.53 fold
[7]; 0.01 μM
  Fold activation with respect to control cells, Cleaved Caspase 3: 1.62 fold
[7]; cancer cells, conclusion
  effect on cleaved caspase 3 (in words): prominent upregulation
